Data from ChEMBL document CHEMBL1148635, “Discovery, structure-activity relationship, and pharmacological evaluation of (5-substituted-pyrrolidinyl-2-carbonyl)-2-cyanopyrrolidines as potent dipeptidyl peptidase IV inhibitors” (J Med Chem, 2006).

How the values were obtained:
[1] = Plasma clearance in Sprague-Dawley rat at 5 mg/kg, iv; format: ADME, organism-based; set-up: dose 5 mg/kg, route intravenous
[2] = Cmax in Sprague-Dawley rat at 5 mg/kg, po; format: ADME, organism-based; set-up: dose 5 mg/kg, route oral; settings: in vivo
[3] = Oral bioavailability in Sprague-Dawley rat at 5 mg/kg; format: ADME, organism-based; settings: in vivo
Rattus norvegicus [4] = assay: AUC in Sprague-Dawley rat at 5 mg/kg, po; format: ADME, organism-based, Plasma; set-up: dose 5 mg/kg, route oral; settings: in vivo
[5] = Half life in Sprague-Dawley rat at 5 mg/kg, po; format: ADME, organism-based; set-up: dose 5 mg/kg, route oral; settings: in vivo
[6] = Volume of distribution in Sprague-Dawley rat at 5 mg/kg; format: ADME, organism-based; set-up: dose 5 mg/kg; settings: in vivo, read-out: Vdss
[7] = Half life in phosphate buffer at pH 7.4 at 37 degreeC; format: ADME
Dipeptidyl peptidase 4 [8] = molecular target: T1, Dipeptidyl peptidase 4 (Homo sapiens, UniProt P27487); assay: Inhibition of human recombinant DPP4 by tight-binding assay
T1 sequence (P27487 whole entry): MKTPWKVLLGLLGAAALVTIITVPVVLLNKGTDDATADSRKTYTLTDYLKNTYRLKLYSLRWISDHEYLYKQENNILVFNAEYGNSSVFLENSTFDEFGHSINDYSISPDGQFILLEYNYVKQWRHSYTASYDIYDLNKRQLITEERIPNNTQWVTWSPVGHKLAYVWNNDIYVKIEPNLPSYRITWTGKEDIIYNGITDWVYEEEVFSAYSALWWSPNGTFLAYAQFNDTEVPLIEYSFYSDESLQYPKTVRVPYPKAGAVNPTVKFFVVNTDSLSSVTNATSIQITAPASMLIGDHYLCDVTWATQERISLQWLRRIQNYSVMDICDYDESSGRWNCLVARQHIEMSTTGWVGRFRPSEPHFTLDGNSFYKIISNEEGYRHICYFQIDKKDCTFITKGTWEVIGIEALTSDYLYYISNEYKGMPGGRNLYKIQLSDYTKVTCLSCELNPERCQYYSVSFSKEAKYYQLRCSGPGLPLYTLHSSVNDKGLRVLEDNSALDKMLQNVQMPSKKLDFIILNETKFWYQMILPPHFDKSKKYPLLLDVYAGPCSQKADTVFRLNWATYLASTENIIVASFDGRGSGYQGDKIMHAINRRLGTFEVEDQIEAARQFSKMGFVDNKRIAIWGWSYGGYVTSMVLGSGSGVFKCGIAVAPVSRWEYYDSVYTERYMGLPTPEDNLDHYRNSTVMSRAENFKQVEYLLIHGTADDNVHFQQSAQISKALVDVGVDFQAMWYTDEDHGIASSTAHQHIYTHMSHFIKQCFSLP

Dipeptidyl peptidase 4 [9] = molecular target: T1, Dipeptidyl peptidase 4; assay: Inhibition of human recombinant DPP4
Dipeptidyl peptidase 4 [10] = molecular target: T1, Dipeptidyl peptidase 4; assay: Inhibition of human recombinant DPP4 by tight-binding assay in presence of 10% rat plasma; format: cell-free
Prolyl endopeptidase = molecular target: T2, Prolyl endopeptidase (Homo sapiens, UniProt P48147); assay: Inhibition of POP by tight-binding assay
T2 sequence (P48147 whole entry): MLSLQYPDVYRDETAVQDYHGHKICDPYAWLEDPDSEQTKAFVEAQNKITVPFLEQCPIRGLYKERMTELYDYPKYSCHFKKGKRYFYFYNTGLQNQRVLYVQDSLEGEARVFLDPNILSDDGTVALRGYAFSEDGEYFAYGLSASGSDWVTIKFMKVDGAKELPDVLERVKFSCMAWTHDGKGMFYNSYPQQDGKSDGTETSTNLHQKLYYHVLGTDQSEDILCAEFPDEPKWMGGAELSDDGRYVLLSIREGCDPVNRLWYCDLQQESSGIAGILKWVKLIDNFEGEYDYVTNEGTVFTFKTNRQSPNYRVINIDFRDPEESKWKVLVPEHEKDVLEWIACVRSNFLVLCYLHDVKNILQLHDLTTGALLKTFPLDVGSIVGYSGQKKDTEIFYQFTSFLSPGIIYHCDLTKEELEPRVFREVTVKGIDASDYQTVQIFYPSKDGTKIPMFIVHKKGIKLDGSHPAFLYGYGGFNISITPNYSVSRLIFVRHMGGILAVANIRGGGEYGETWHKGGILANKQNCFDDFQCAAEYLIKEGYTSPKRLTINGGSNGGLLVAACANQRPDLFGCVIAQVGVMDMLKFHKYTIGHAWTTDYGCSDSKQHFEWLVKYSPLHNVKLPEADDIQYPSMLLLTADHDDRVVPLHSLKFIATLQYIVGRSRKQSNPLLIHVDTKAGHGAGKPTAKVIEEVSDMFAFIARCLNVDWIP

Dipeptidyl peptidase 2 = Dipeptidyl peptidase 2 (Homo sapiens, UniProt Q9UHL4); assay: Inhibition of DPP7 by tight-binding assay
Rattus norvegicus [11] = assay: Lowering of blood glucose level in ZDF rat at 3 mg/kg, po by oral glucose tolerance test; format: functional
Rattus norvegicus [12] = assay: Lowering of blood glucose level in ZDF rat at 1 mg/kg, po by oral glucose tolerance test; format: functional
Rattus norvegicus [13] = assay: Lowering of blood glucose level in ZDF rat at 0.1 mg/kg, po by oral glucose tolerance test; format: functional

Row | SMILES | clearance [1] [mL/min/kg] | Cmax [2] [ng/mL] | bioavailability [3] [%] | AUC (Rattus norvegicus [4]) [ng·h/mL] | half-life [5] [h] | Vd [6] [L/kg] | half-life [7] [h] | other results
1 | C[C@H]1CC[C@@H](C(=O)N2CCC[C@H]2C#N)N1 | 74.8 | 752 | 58 | 652 | 1.1 | 13.5 | 6.5 | –
2 | N#C[C@@H]1CCCN1C(=O)[C@@H]1CC[C@H](COc2ccccc2Cc2ccccc2)N1 | – | – | – | – | – | – | – | Ki (Dipeptidyl peptidase 4 [8]): Not Active; Ki (Dipeptidyl peptidase 4 [9]): > 3000 nM; Ki (Dipeptidyl peptidase 4 [10]): Not Active
3 | N#C[C@@H]1CCCN1C(=O)[C@@H]1CC[C@H](COc2ccccc2Cl)N1 | – | – | – | – | – | – | – | Ki (Prolyl endopeptidase): 2760 nM
4 | N#C[C@@H]1CCCN1C(=O)[C@@H]1CC[C@H](COc2cc([N+](=O)[O-])c(Cl)cc2Cl)N1 | 3.83 | 805 | 13.5 | 2990 | 3.6 | 0.22 | – | –
5 | N#C[C@@H]1CCCN1C(=O)[C@@H]1CC[C@H](COc2ccc(C(=O)O)cc2Cl)N1 | – | – | – | – | – | – | 19.8 | Ki (Prolyl endopeptidase): 1740 nM
6 | N#C[C@@H]1CCCN1C(=O)[C@@H]1CCCN1 | – | – | – | – | – | – | 1.3 | –
7 | CC[C@H]1CC[C@@H](C(=O)N2CCC[C@H]2C#N)N1 | – | – | – | – | – | – | 16.4 | –
8 | CC(C)[C@H]1CC[C@@H](C(=O)N2CCC[C@H]2C#N)N1 (mixture of isomers) | – | – | – | – | – | – | > 100 | –
9 | N#C[C@@H]1CCCN1C(=O)[C@@H]1CC[C@H](COc2cc(C(=O)O)ccc2Cl)N1 (mixture of isomers) | 4.83 | 146 | 7 | 1280 | 6.9 | 0.35 | > 100 | Ki (Dipeptidyl peptidase 2): > 3000 nM
10 | CC(C)(C)c1ccccc1OC[C@H]1CC[C@@H](C(=O)N2CCC[C@H]2C#N)N1 | 85 | 25.2 | 3 | 28 | 1.3 | 1.14 | 41.2 | –
11 | N#C[C@@H]1CCCN1C(=O)[C@@H]1CC[C@H](COc2cc(C(=O)O)cnc2Cl)N1 | 16 | 29 | 2 | 87 | 1.2 | 0.35 | – | Ki (Prolyl endopeptidase): 666 nM; Ki (Dipeptidyl peptidase 2): > 3000 nM
12 | N#Cc1ccc(OC[C@H]2CC[C@@H](C(=O)N3CCC[C@H]3C#N)N2)c(Cl)c1 | 10.5 | 4540 | 39 | 3140 | 1.5 | 0.2 | 16.7 | –
13 | N#C[C@@H]1CCCN1C(=O)[C@@H]1CC[C@H](COc2ccc(Br)cc2)N1 | – | – | – | – | – | – | 7.8 | –
14 | CC(C)c1cc(C(=O)O)ccc1OC[C@H]1CC[C@@H](C(=O)N2CCC[C@H]2C#N)N1 | 7 | 2470 | 34 | 4110 | 3.5 | 0.73 | – | Activity (Rattus norvegicus [11]): 30%; Activity (Rattus norvegicus [12]): 17%; Ki (Dipeptidyl peptidase 2): > 3000 nM; Activity (Rattus norvegicus [13]): 3%
15 | CS(=O)(=O)c1ccc(OC[C@H]2CC[C@@H](C(=O)N3CCC[C@H]3C#N)N2)c(Br)c1 | 14 | 3730 | 40 | 2920 | 2.2 | 0.3 | – | –
16 | N#C[C@@H]1CCCN1C(=O)[C@@H]1CC[C@H](COc2ccc3ccccc3c2)N1 | – | – | – | – | – | – | 10.8 | –
17 | CC(C)(C)c1cc(C(=O)O)ccc1OC[C@H]1CC[C@@H](C(=O)N2CCC[C@H]2C#N)N1 | 5.33 | 5580 | 63 | 9630 | 4.2 | 1 | 65.4 | –
18 | N#C[C@@H]1CCCN1C(=O)[C@@H]1CC[C@H](COc2cc(C(=O)O)c[n+]([O-])c2Cl)N1 | – | – | – | – | – | – | – | Ki (Prolyl endopeptidase): 1530 nM; Ki (Dipeptidyl peptidase 2): > 3000 nM
